Article PMC5343665, “Cytochrome P450s in human immune cells regulate IL-22 and c-Kit via an AHR feedback loop” (Scientific Reports, 2017)

Assays:
Type in all cases: cell-based
CYP1A1 = biological target: T1, CYP1A1 (Homo sapiens, UniProt P04798); assay: EROD (ethoxyresorufin deethylase) assay in V79 cells expressing human CYP1A1
T1 sequence (P04798 1-512): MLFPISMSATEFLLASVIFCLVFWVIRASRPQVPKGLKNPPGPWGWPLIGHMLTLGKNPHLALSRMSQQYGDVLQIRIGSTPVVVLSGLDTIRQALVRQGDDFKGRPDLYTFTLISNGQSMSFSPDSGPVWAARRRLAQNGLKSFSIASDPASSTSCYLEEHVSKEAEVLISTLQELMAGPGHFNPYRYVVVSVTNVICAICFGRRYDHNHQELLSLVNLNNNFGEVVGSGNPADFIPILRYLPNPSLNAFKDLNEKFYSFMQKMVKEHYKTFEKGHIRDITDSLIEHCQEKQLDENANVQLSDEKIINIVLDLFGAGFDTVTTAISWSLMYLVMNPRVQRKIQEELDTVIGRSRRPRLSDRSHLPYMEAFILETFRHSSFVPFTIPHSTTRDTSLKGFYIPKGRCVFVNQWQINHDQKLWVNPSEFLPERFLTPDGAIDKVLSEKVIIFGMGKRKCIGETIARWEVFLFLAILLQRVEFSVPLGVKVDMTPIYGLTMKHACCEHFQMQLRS

CYP1B1 = biological target: T2, CYP1B1 (Homo sapiens, UniProt Q16678); assay: EROD (ethoxyresorufin deethylase) assay in V79 cells expressing human CYP1B1
T2 sequence (Q16678 1-543): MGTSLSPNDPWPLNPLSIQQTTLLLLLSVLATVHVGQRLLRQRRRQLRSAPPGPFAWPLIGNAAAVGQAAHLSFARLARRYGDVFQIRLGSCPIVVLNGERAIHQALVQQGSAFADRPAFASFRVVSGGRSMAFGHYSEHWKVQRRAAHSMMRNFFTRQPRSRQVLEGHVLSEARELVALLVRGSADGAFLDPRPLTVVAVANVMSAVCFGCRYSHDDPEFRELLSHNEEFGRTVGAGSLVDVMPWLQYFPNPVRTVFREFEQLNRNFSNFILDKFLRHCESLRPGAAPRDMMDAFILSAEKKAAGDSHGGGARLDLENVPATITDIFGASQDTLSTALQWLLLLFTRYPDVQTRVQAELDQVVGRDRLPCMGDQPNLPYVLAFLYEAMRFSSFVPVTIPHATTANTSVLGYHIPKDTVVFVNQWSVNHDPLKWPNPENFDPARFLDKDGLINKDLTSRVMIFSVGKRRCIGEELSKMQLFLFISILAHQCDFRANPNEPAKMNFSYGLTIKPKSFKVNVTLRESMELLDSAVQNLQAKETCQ

CYP1A2 = biological target: T3, CYP1A2 (Homo sapiens, UniProt P05177); assay: EROD (ethoxyresorufin deethylase) assay in V79 cells expressing human CYP1A2
T3 sequence (P05177 2-516): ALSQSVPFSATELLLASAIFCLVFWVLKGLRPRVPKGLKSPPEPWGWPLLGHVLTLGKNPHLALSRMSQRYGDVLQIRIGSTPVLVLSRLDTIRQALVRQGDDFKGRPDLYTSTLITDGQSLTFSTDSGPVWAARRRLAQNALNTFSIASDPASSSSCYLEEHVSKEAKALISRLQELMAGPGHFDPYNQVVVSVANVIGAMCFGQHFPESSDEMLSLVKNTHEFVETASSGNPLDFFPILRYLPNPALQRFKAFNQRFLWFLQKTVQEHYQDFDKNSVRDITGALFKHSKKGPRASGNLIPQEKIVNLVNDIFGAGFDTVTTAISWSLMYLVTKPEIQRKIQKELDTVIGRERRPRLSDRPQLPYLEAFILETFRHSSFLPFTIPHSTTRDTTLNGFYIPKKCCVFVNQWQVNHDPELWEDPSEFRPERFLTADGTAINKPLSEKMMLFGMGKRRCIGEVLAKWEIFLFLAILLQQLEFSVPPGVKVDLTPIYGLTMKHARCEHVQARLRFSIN

With `CC#Cc1ccc2ccc3cccc4ccc1c2c34` [1-PP, 1-(1-propynyl)-pyrene] the IC50 (CYP1A1) was 5 nM, the IC50 (CYP1B1) was 218 nM and the IC50 (CYP1A2) was 650 nM.
